Measurements: ChEMBL document CHEMBL6120973 (J Med Chem, 2024)
In brackets after ≈: the same amount, converted by molar mass.

Experiments:
Cytochrome P450 2C9 = Cytochrome P450 2C9 (Homo sapiens, UniProt P11712); test: Inhibition of CYP2C9 in human liver microsomes preincubated for 10 mins followed by NADPH addition and measured after 15 mins by LC/MS/MS analysis
[1] = test system: Human immunodeficiency virus 1; test: Potency index, ratio of 4-(8-(3-nitrophenyl)-1,7-naphthyridin-6-yl)benzoic acid MIC to test compound MIC for antiviral activity against wildtype HIV-1 IIIB infected in human MT4 cells assessed as protection against virus-induced cytopathic effect incubated for 5 days by MTT assay; assay type: functional; settings: time 5 day
[2] = Metabolic stability in human liver microsomes assessed as half-life at 0.1 uM preincubated for 10 mins followed by NADPH addition and measured upto 60 mins by LC-MS/MS analysis; assay type: ADME, Microsome; settings: time < 70 min
[3] = Acute toxicity in female ICR mouse assessed as effect on pathological damage in kidney at 2000 mg/kg, IG measured after 14 days by H and E staining based analysis; assay type: organism-based; settings: in vivo, po, 336 h, time 14 day
[4] = Solubility of compound in phosphate buffer at pH 7.0 measured after 24 hrs by HPLC analysis; assay type: physicochemical
[5] = test system: Human immunodeficiency virus 1; test: Antiviral activity against HIV-1 harboring RT E138K mutant infected in human MT4 cells assessed as protection against virus-induced cytopathic effect incubated for 5 days by MTT assay; assay type: functional, organism-based; settings: Human immunodeficiency virus 1, MT4, 120 h
[6] = Acute toxicity in female ICR mouse assessed as effect on pathological damage in lung at 2000 mg/kg, IG measured after 14 days by H and E staining based analysis; assay type: organism-based; settings: in vivo, po, 336 h, time 14 day
[7] = Acute toxicity in female ICR mouse assessed as effect on pathological damage in liver at 2000 mg/kg, IG measured after 14 days by H and E staining based analysis; assay type: organism-based; settings: in vivo, po, 336 h, time 14 day
[8] = Solubility of compound in Watson's distilled pure water measured after 24 hrs by HPLC analysis; assay type: physicochemical
Cytochrome P450 1A2 = biological target: T1, Cytochrome P450 1A2 (Homo sapiens, UniProt P05177); test: Inhibition of CYP1A2 in human liver microsomes preincubated for 10 mins followed by NADPH addition and measured after 15 mins by LC/MS/MS analysis
T1 sequence (P05177 whole entry): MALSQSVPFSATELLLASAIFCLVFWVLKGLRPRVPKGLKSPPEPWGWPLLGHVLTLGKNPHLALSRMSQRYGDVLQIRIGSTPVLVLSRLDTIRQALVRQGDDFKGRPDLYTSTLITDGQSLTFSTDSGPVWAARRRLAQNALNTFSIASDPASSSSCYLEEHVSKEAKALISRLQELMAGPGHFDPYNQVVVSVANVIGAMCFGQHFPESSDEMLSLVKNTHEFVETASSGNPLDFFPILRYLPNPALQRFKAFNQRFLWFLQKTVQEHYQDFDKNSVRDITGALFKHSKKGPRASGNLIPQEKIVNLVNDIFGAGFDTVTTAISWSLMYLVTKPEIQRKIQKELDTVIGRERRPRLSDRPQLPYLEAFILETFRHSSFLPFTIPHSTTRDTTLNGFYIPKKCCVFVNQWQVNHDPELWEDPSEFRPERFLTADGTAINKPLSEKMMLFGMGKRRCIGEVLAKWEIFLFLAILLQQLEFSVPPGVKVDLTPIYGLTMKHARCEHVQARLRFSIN

[9] = Acute toxicity in male ICR mouse assessed as effect on pathological damage in brain at 2000 mg/kg, IG measured after 14 days by H and E staining based analysis; assay type: organism-based; settings: in vivo, po, 336 h, time 14 day
Cytochrome P450 3A4 = Cytochrome P450 3A4 (Homo sapiens, UniProt P08684); test: Inhibition of CYP3A4 in human liver microsomes using testosterone as substrate preincubated for 10 mins followed by NADPH addition and measured after 15 mins by LC/MS/MS analysis
[10] = test system: Human immunodeficiency virus 1; test: Antiviral activity against HIV-1 harboring RT Y181C mutant infected in human MT4 cells assessed as protection against virus-induced cytopathic effect incubated for 5 days by MTT assay; assay type: functional, organism-based; settings: Human immunodeficiency virus 1, MT4, 120 h
[11] = Acute toxicity in female ICR mouse assessed as effect on body weight at 2000 mg/kg, IG measured after 14 days; assay type: organism-based; settings: in vivo, po, 336 h, time 14 day
[12] = test system: Human immunodeficiency virus 1; test: Antiviral activity against HIV-1 harboring RT K103N mutant infected in human MT4 cells assessed as protection against virus-induced cytopathic effect incubated for 5 days by MTT assay; assay type: functional, organism-based; settings: Human immunodeficiency virus 1, MT4, 120 h
[13] = Metabolic stability in dog liver microsomes assessed as half-life at 0.1 uM preincubated for 10 mins followed by NADPH addition and measured upto 60 mins by LC-MS/MS analysis; assay type: ADME, Canis lupus familiaris, Microsome; settings: time < 70 min
[14] = Acute toxicity in female ICR mouse assessed as effect on pathological damage in heart at 2000 mg/kg, IG measured after 14 days by H and E staining based analysis; assay type: organism-based; settings: in vivo, po, 336 h, time 14 day
[15] = Acute toxicity in male ICR mouse assessed as effect on pathological damage in spleen at 2000 mg/kg, IG measured after 14 days by H and E staining based analysis; assay type: organism-based; settings: in vivo, po, 336 h, time 14 day
[16] = biological target: Human immunodeficiency virus type 1 reverse transcriptase (Human immunodeficiency virus 1, UniProt Q72547); test: Inhibition of recombinant wild type HIV-1 Reverse transcriptase incubated for 40 mins by Pico-green reagent based fluorescence analysis
[17] = Acute toxicity in male ICR mouse assessed as effect on pathological damage in heart at 2000 mg/kg, IG measured after 14 days by H and E staining based analysis; assay type: organism-based; settings: in vivo, po, 336 h, time 14 day
[18] = test system: Human immunodeficiency virus 1; test: Antiviral activity against HIV-1 harboring RT Y188L mutant infected in human MT4 cells assessed as protection against virus-induced cytopathic effect incubated for 5 days by MTT assay; assay type: functional, organism-based; settings: Human immunodeficiency virus 1, MT4, 120 h
[19] = Acute toxicity in male ICR mouse assessed as effect on behavior at 2000 mg/kg, IG measured after 14 days; assay type: organism-based; settings: in vivo, po, 336 h, time 14 day
[20] = Selectivity index, ratio of CC50 for human MT4 cells to EC50 for wild type HIV-1 IIIB infected in human MT4 cellS; settings: MT4 cells
[21] = Acute toxicity in female ICR mouse assessed as effect on pathological damage in brain at 2000 mg/kg, IG measured after 14 days by H and E staining based analysis; assay type: organism-based; settings: in vivo, po, 336 h, time 14 day
[22] = test system: Human immunodeficiency virus 1; test: Antiviral activity against wildtype HIV-1 IIIB infected in human MT4 cells assessed as protection against virus-induced cytopathic effect incubated for 5 days by MTT assay; assay type: functional, organism-based; settings: Human immunodeficiency virus 1, IIIB, MT4, 120 h
hERG = hERG (Homo sapiens, UniProt Q12809); test: Inhibition of human ERG expressed in CHO cells at holding potential of -80 mV at >40 uM by automated patch clamp electrophysiological method relative to control; assay type: toxicity, cell-based; settings: CHO cells that express hERG
[23] = Acute toxicity in female ICR mouse assessed as effect on behavior at 2000 mg/kg, IG measured after 14 days; assay type: organism-based; settings: in vivo, po, 336 h, time 14 day
[24] = Metabolic stability in rat liver microsomes assessed as half-life at 0.1 uM preincubated for 10 mins followed by NADPH addition and measured upto 60 mins by LC-MS/MS analysis; assay type: ADME, Microsome; settings: time < 70 min
[25] = Acute toxicity in male ICR mouse assessed as effect on pathological damage in lung at 2000 mg/kg, IG measured after 14 days by H and E staining based analysis; assay type: organism-based; settings: in vivo, po, 336 h, time 14 day
[26] = Solubility of compound in phosphate buffer at pH 2.0 measured after 24 hrs by HPLC analysis; assay type: physicochemical

Sequence of Cytochrome P450 2C9 (P11712 whole entry): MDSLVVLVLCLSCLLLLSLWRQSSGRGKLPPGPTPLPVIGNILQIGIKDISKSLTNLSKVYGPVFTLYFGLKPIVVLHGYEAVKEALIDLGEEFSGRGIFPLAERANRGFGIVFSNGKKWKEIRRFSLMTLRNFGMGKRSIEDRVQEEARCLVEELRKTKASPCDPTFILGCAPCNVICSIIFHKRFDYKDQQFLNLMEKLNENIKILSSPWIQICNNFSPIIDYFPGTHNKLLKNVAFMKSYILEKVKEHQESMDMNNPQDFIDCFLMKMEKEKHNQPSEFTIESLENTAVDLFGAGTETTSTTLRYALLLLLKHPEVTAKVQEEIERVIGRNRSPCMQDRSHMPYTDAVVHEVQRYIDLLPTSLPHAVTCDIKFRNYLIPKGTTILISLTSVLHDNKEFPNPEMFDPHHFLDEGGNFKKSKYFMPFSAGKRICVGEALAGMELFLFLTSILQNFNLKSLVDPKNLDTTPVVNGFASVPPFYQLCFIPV
Sequence of hERG (Q12809 whole entry): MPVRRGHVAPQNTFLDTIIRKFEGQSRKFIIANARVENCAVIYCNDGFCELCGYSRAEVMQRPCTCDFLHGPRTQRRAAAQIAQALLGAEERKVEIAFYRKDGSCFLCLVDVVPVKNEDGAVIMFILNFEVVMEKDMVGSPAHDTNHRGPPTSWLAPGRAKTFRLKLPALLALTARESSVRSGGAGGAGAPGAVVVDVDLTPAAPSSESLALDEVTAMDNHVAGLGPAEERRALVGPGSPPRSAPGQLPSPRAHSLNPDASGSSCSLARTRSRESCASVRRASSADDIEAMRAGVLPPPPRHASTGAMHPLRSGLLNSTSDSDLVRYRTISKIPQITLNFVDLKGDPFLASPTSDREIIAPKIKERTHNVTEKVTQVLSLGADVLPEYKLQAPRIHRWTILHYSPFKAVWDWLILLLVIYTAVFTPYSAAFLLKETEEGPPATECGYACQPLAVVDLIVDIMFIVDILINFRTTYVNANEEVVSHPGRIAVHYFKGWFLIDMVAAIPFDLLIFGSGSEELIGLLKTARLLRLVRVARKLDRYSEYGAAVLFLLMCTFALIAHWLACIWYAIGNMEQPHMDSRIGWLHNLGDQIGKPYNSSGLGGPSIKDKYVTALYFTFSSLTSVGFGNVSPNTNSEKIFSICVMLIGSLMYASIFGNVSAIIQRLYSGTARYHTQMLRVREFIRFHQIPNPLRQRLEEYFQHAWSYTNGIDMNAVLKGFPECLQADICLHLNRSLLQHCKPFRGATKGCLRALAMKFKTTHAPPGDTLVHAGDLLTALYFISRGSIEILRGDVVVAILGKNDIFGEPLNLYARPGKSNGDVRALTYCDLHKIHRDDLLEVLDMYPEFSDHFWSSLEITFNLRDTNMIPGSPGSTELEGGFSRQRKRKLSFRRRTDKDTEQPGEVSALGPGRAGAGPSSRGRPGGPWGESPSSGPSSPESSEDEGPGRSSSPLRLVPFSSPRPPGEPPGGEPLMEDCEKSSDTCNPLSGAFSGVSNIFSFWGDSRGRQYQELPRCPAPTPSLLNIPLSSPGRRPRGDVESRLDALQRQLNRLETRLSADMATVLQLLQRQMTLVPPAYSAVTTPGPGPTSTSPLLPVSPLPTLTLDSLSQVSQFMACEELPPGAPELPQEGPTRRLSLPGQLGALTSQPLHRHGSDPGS
Sequence of Cytochrome P450 3A4 (P08684 whole entry): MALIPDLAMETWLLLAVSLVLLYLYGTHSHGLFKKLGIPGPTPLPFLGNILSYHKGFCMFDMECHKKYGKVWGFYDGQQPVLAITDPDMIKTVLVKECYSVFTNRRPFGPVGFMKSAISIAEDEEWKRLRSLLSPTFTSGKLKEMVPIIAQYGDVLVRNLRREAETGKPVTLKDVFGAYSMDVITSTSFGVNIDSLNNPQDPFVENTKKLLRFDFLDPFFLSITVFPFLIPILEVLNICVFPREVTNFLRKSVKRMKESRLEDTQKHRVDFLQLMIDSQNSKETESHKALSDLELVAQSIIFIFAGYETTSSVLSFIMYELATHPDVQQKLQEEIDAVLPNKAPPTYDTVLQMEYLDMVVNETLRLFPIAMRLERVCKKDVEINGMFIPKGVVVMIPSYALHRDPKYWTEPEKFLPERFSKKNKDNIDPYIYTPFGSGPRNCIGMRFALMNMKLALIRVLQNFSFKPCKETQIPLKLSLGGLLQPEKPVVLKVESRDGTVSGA

## Cc1cc(-c2ccncc2)cc(C)c1Nc1nc(Nc2ccc(C#N)cc2)ncc1-c1cn[nH]c1
Cytochrome P450 2C9
  IC50: > 50000 nM
[1]
  Ratio: 37
[2]
  half-life at 0.1 µM: 29.9 min
[3]
  Activity: Non-toxic
[4]
  solubility at 24 h: < 1 µg/mL
[5]
  EC50: 11 nM
[6]
  Activity: Non-toxic
[7]
  Activity: Non-toxic
[8]
  solubility at 24 h: 1.3 µg/mL (≈ 2.84 µM)
Cytochrome P450 1A2
  IC50: > 50000 nM
[9]
  Activity: Non-toxic
Cytochrome P450 3A4
  IC50: > 50000 nM
[10]
  EC50: 13 nM
[11]
  Activity: Non-toxic
[12]
  EC50: 7 nM
[13]
  half-life at 0.1 µM: 58.8 min
[14]
  Activity: Non-toxic
[15]
  Activity: Non-toxic
[16]
  IC50: 49 nM
[17]
  Activity: Non-toxic
[18]
  EC50: 13 nM
[19]
  Activity: Non-toxic
[20]
  selectivity ratio: > 52600
[21]
  Activity: Non-toxic
[22]
  EC50: 5 nM
hERG
  inhibition at 40 µM: 31.4%
[23]
  Activity: Non-toxic
[24]
  half-life at 0.1 µM: 20.4 min
[25]
  Activity: Non-toxic
[26]
  solubility at 24 h: 1190 µg/mL (≈ 2600 µM)
